Source: PMC2033360, “Effects of a new antioestrogen, idoxifene, on cisplatin- and doxorubicin-sensitive and -resistant human ovarian carcinoma cell lines” (British Journal of Cancer, 1994)
Read-outs that look alike come from different tables or passages of the source.

Key:
[1] = biological target: T1, calmodulin-dependent cyclic AMP phosphodiesterase (Homo sapiens, UniProt P0DP23); design: method as in Rowlands et al., 1990; conditions: values taken from previous determinations; ref Rowlands et al., 1990; read-out: calmodulin IC50 (inhibition of calmodulin-dependent cyclic AMP phosphodiesterase); cited from earlier work
CH1cisR6 cells [2] = test: DNA interstrand cross-link repair by alkaline elution, CH1cisR6; assay type: cell-based, human
Text: (§1) Sary Pyroidno-4-iodotamoxifen (idoxifene) is a new non-steroidal antioestrogen currently undergoig phase I clnical evaluation. […] One agent that has featured in studies of both doxorubicin and cilatin resist- ance has been the extensively used antioestrogen tamoxifen. […] Tlhe purposes of this study were 3-fold. Initially, using a series of tamoxifen analogues of known inhibitory constants for calmodulin, the effect of increasing calmodulin inhibition on cytotoxicity against four human ovarian carcnoma cell lines was determined. […] Materials and mehod Drugs and chemicals The structures of tamoxifen and the various analogues of tamoxifen used are illustrated in Figure 1. […] Calmidazolium (R24571), Correspondence: L.R. Kelland, Drug Development Section, The Institute of Cancer Research, Block E, 15 Cotswold Road, Sutton, Surrey SM2 5NG, UK. […] Cytotoxicity data were then fitted to regression lines, and the concentration of each drug which produced a given level of cytotoxicity (fractional effect, Fa) alone or in combination was determined. Combination index (CI) for a given Fa was calculated as: CI = d' + td D-1 + D2 where DI and D2 are the doses of drugs 1 and 2, which by themselves produce a given Fa (i.e. IC5o); d' and d2 are the doses which produce the same Fa in combination. […]

41McisR6 cells [3] = test: Intracellular platinum accumulation (flameless atomic absorption), 41McisR6; assay type: cell-based, human; conditions: 2 h exposure to cisplatin alone or with 2 microM idoxifene
Text: as §1

[4] = system: human ovarian carcinoma cell lines; test: Highest non-toxic concentration of the resistance modifiers, preliminary experiments; assay type: cell-based; conditions: <10% cell kill in any one cell line; continuous drug exposure
Text: as §1

CH1 cells [5] = test: DNA interstrand cross-link repair by alkaline elution, CH1; assay type: cell-based, human
Text: as §1

41McisR6 cells [6] = test: SRB cytotoxicity assay, 41McisR6; assay type: cell-based, human; conditions: acquired cisplatin-resistant line versus parent
CH1cisR6 cells [7] = test: Intracellular platinum accumulation (flameless atomic absorption), CH1cisR6; assay type: cell-based, human; conditions: 2 h exposure to cisplatin alone or with 2 microM idoxifene
Text: as §1

CH1cisR6 cells [8] = conditions: acquired cisplatin-resistant line versus parent
[9] = system: four human ovarian carcinoma cell lines; test: cells; conditions: read-out: mean IC50 across four human ovarian carcinoma cell lines (cytotoxicity)
Text: as §1

41MdoxR cells = test: SRB cytotoxicity assay, 41MdoxR; conditions: for Rf, resistance factor (IC50 resistant line/IC50 parent line), 41MdoxR/41M: doxorubicin resistance
Text: (§2) Sary Pyroidno-4-iodotamoxifen (idoxifene) is a new non-steroidal antioestrogen currently undergoig phase I clnical evaluation. […] One agent that has featured in studies of both doxorubicin and cilatin resist- ance has been the extensively used antioestrogen tamoxifen. […] Tlhe purposes of this study were 3-fold. Initially, using a series of tamoxifen analogues of known inhibitory constants for calmodulin, the effect of increasing calmodulin inhibition on cytotoxicity against four human ovarian carcnoma cell lines was determined. […] Materials and mehod Drugs and chemicals The structures of tamoxifen and the various analogues of tamoxifen used are illustrated in Figure 1. […] Calmidazolium (R24571), Correspondence: L.R. Kelland, Drug Development Section, The Institute of Cancer Research, Block E, 15 Cotswold Road, Sutton, Surrey SM2 5NG, UK. […] Briefly, the analysis compares the effects of drug combinations to the effects of individual drugs across the entire dose-effect range. Cytotoxicity data were then fitted to regression lines, and the concentration of each drug which produced a given level of cytotoxicity (fractional effect, Fa) alone or in combination was determined. Combination index (CI) for a given Fa was calculated as: CI = d' + td D-1 + D2 where DI and D2 are the doses of drugs 1 and 2, which by themselves produce a given Fa (i.e. IC5o); d' and d2 are the doses which produce the same Fa in combination. CI= I indicates zero interaction (additive cytotoxicity), CI <I indicates synergy and CI> 1 indicates antagonism (Chou computer program, Biosoft). […] All cell lines were grown as monolayers in Dulbecco's modified Eagle medium (DMEM) supplemented with 10% heat-iactivated fetal calf serum (Imperial Laboratores, Andover, UK), 50 gml-' gentamic 2.5 jg ml-' ampho- tericin B, 2 mM L-glutmie 10 jag ml- insulin and 0.5 jgmml' hydrocorisone in a 10% carbon dioxide, 90% air atmosphere. […] Assssment of cytotoxicity Tamoxifen and the analogues of tamoxifen were dissolved immediately before use in absolute ethanol at 20 mM. […]

41M cells = test: SRB cytotoxicity assay, 41M; conditions: Homo sapiens, read-out: 96 h IC50, doxorubicin cytotoxicity, 41M
Text: as §1

CH1 cells [10] = test: SRB cytotoxicity assay, CH1; conditions: Homo sapiens, CH1, read-out: 96 h IC50, doxorubicin cytotoxicity, CH1
CH1doxR cells = test: SRB cytotoxicity assay, CH1doxR; conditions: for Rf, resistance factor (IC50 resistant line/IC50 parent line), CH1doxR/CH1: doxorubicin resistance
Text: as §2

[11] = biological target: T1, calmodulin-dependent cyclic AMP phosphodiesterase; test: Inhibition of calmodulin-dependent cyclic AMP phosphodiesterase; assay type: biochemical; conditions: unpublished data of the authors
Text: as §1

[12] = after 2 h cisplatin 25 microM, removal in presence of 2 microM idoxifene
[13] = after 2 h exposure to cisplatin 25 microM, removed at 2 h versus 5 h (so in the source)

CC/C(=C(\c1ccc(I)cc1)c1ccc(OCCN2CCCC2)cc1)c1ccccc1 [idoxifene, Pyrrolidino-4-iodotamoxifen]
IC50 [1]: 1400 nM | effect on rate of DNA interstrand cross-link (ISC) removal, CH1cisR6 (CH1cisR6 cells [2]; [12]): did not markedly affect | effect on platinum accumulation, 41McisR6 (41McisR6 cells [3]): no significant difference | highest non-toxic concentration [4]: 2 µM | effect on rate of DNA interstrand cross-link (ISC) removal, CH1 (CH1 cells [5]; [12]): did not markedly affect | Rf, resistance factor (IC50 resistant line/IC50 parent line), 41McisR6/41M (41McisR6 cells [6]): < 1 | effect on platinum uptake, CH1cisR6 (CH1cisR6 cells [7]): no difference in uptake | Rf, resistance factor (IC50 resistant line/IC50 parent line), CH1cisR6/CH1 (CH1cisR6 cells [8]): < 1 | IC50 [9]: 4.5 µM

CC/C(=C(\c1ccccc1)c1ccc(OCCN(C)C)cc1)c1ccccc1 [tamoxifen]
highest non-toxic concentration [4]: 4 µM | Rf, resistance factor (IC50 resistant line/IC50 parent line), 41McisR6/41M (41McisR6 cells [6]): < 1 | Rf, resistance factor (IC50 resistant line/IC50 parent line), CH1cisR6/CH1 (CH1cisR6 cells [8]): < 1 | IC50 [9]: 6.3 µM

CC/C(=C(/c1ccc(I)cc1)c1ccc(OCCN(C)C)cc1)c1ccccc1 [4-iodotamoxifen]
Rf, resistance factor (IC50 resistant line/IC50 parent line), 41McisR6/41M (41McisR6 cells [6]): < 1 | Rf, resistance factor (IC50 resistant line/IC50 parent line), CH1cisR6/CH1 (CH1cisR6 cells [8]): < 1

Clc1ccc(C(c2ccc(Cl)cc2)n2cc[n+](CC(OCc3ccc(Cl)cc3Cl)c3ccc(Cl)cc3Cl)c2)cc1 (stereo not drawn) [calmidazolium]
Rf, resistance factor (IC50 resistant line/IC50 parent line), 41McisR6/41M (41McisR6 cells [6]): < 1 | Rf, resistance factor (IC50 resistant line/IC50 parent line), CH1cisR6/CH1 (CH1cisR6 cells [8]): < 1

N.N.[Cl][Pt][Cl] [cisplatin, cis-diamminedichloroplatinum (II)]
removal of cross-links, CH1cisR6 (CH1cisR6 cells [2]; [13]): 90% | removal of cross-links, CH1 (CH1 cells [5]; [13]): 15%

COc1cccc2c1C(=O)c1c(O)c3c(c(O)c1C2=O)C[C@@](O)(C(=O)CO)C[C@@H]3O[C@H]1C[C@H](N)[C@H](O)[C@H](C)O1 [doxorubicin]
IC50 (41MdoxR cells; Homo sapiens, read-out: 96 h IC50, doxorubicin cytotoxicity, 41MdoxR): 280 nM | Rf, resistance factor (IC50 resistant line/IC50 parent line), 41MdoxR/41M (41MdoxR cells): approximately 7 | Rf, resistance factor (IC50 resistant line/IC50 parent line), 41MdoxR/41M (41MdoxR cells; listed as Doxorubicin): 7.2 | IC50 (41M cells): 39 nM | IC50 (CH1 cells [10]): 5.3 nM | IC50 (CH1doxR cells; Homo sapiens, read-out: 96 h IC50, doxorubicin cytotoxicity, CH1doxR): 460 nM | Rf, resistance factor (IC50 resistant line/IC50 parent line), CH1doxR/CH1 (CH1doxR cells): ~90 | Rf, resistance factor (IC50 resistant line/IC50 parent line), CH1doxR/CH1 (CH1doxR cells; listed as Doxorubicin): 87

CC/C(=C(/c1ccc(OCCN(C)C)cc1)c1cccc(O)c1)c1ccccc1 [3-hydroxytamoxifen]
IC50 [11]: 13 µM | Rf, resistance factor (IC50 resistant line/IC50 parent line), 41McisR6/41M (41McisR6 cells [6]): < 1 | Rf, resistance factor (IC50 resistant line/IC50 parent line), CH1cisR6/CH1 (CH1cisR6 cells [8]): < 1
